According to patent US12599649B2, “Bioactive polypeptides for improvements in plant protection, growth and productivity” (priority 2017, dated 2026):
Several values for one entry are separate records, joined by “and”; a condition that tells them apart may be missing. Identical values can stand only once. No end group written: not given here. *: point of attachment. sulfo = O=S(=O)(O)*

Columns and labels:
corn [1] = experiment: Foliar E. coli flagellin polypeptides on V5-V8 corn, yield (Example 5); format: in vivo; settings: V5-V8, 0.33 Fl. oz/Ac, 12 locations
Procedure: The effect of flagellin polypeptides derived from Escherichia coli on corn yield was then tested. Corn plants (Beck's 5828 YH) received an initial spray application at the V5-V8 stage of development with formulations containing the Ec.
FIG. 5 depicts yield across these 12 locations, normalized to the non-treated control plants and shown as an increase or a decrease in Bu/Ac compared to the control. […] Therefore, application of foliar sprays containing the Ec.Flg22 (SEQ ID NO: 526) bioactive priming polypeptides provided a beneficial growth response and yield benefit to corn plants when applied at the V5-V8 stage of development.

corn [2] = experiment: Foliar Flg22 polypeptides on corn, field yield trials (Example 1); format: in vivo; settings: first year field trials, 10 locations, vs non-treated control
Procedure: Flg22 (SEQ ID NO 526) and Ec.RI Flg22 (SEQ ID 527) bioactive priming polypeptides on corn (BECK'S 5828 YH, 6175YE) yield was determined in 10 separate locations in the US Midwest (FIG. 2 and FIG. 3).
Four-row plots, 17.5 feet (5.3 meters) long were planted at all locations. […] Each hybrid was grown in at least three separate plots (replicates) at each location to account for field variability.
The final concentration in the spray tank was 25 nM after dilution in carrier rate of 10 gallons water/Ac […]. […] Retro-inverso polypeptides were applied during the first year field trials to compare with native Bt.4Q7Flg22. […] Each polypeptide was applied with a non-ionic surfactant at 0.5%. The effect of bioactive priming polypeptides was measured as the absolute changes in yield in bushels per acre (Bu/Ac). Additionally, the win rate was calculated: the percentage of testing locations at which one treatment has a yield advantage over other treatments (in this case, as compared to the non-treated control plants).
Each study was performed at between 10 and 11 sites. The end results of the study at V5-V8 at 0.33 Fl. oz/Ac (24.1 mL/Ha) was 5.75 Bu/Ac or 360.9 kg/Ha advantage, at 4 Fl. oz/Ac a 3.77 bu/Ac or 236.6 kg/Ha advantage, and at 8 Fl. oz/Ac a 5.05 Bu/Ac or 317 kg/Ha.

soybean [3] = experiment: Flg22 and RHPP on R2 soybean, field yield (Examples 3-4); settings: second study, R2 foliar
soybean [4] = experiment: Soybean seed treatment with Flg22 polypeptides and RHPP, yield (Example 10); format: in vivo; settings: 12 locations
Excerpt: A third study was set up to look at soybean seed treatment benefits of Bt.4Q7 Flg22, RI Bt.4Q7Flg22, Ec.RI Flg22, and RHPP as a seed treatment on soybean.

corn [5] = experiment: Corn plant height in non-stress and heat/water deficit stress environments (Example 8); format: in vivo; settings: foliar 1 μM
Procedure: Control plants were treated only with water.

soybean [6] = experiment: Foliar Ec.Flg22 on V2-V3 soybean, plant height in growth room (Example 6); format: in vivo; settings: 0.33 Fl. oz/Ac, 2 weeks after application
corn [7] = experiment: Corn seed treatment with Flg22 polypeptides, yield (Example 10); format: in vivo; settings: second study, 12 locations
Procedure: The seed applications were provided using a 40 μM polypeptide stock diluted to the appropriate concentration in a slurry containing a fungicide, insecticide, beneficial bacteria, colorant and seed finisher (EverGol Energy (0.031 mg ai/seed), PONCHO/VOTiVO (0.6 mg ai/seed), Peridium 1006 (5 fl oz/cwt or 147.9 mL/cwt) and Pro-Ized Red Colorant (normal) (0.5 fl oz/cwt). Seed treatment was applied using a Wintersteiger HEGE II (Wintersteiger AG, Austria, Germany).
Seed was planted in 12 locations in the U.S. Midwest (IA, IL, IN). Sixteen randomized replicate blocks were harvested per each of the Flg22 polypeptide treatments consisting of Bt.4Q7Flg22 applied at 0.25 μM and 1.0 μM slurry concentration.
Replicated trials with 12 locations were set up as above. […] The Ec. Flg22 polypeptide gave 2.8 Bu/Ac (175.8 kg/Ha) advantage at 70% win rate, and the Ec.RI Flg22 gave no benefit.

corn [8] = experiment: Foliar At.PSKα on corn, field yield (Example 20); format: in vivo
Procedure: (§1) The effect of Phytosulfokine alpha (PSKα), a sulfonated bioactive priming polypeptide derived from Arabidopsis thaliana, on corn and soybean yield was tested. Corn and soybeans were cultivated in the field as described in Example 1 and 3. Arabidopsis thaliana PSKα (SEQ ID NO: 598) was applied at a final concentration of 1 μM in foliar spray with a surfactant and provided using a uniform application to the above ground plant parts of corn (hybrid 5140RR) and soybean (hybrid 375 NR). At.PSKα formulations were applied at the V5-V8 stage of development in corn and the V1-V4 stage of development in soybean. Corn and soybean plants treated with At.PSKα were compared to non-treated control plants (water). Treated plants were randomized at one location in four replicate blocks for comparisons to the controls. Yield was reported in Bushels per acre (Bu/Ac).

corn [9] = experiment: Foliar HpaG-like and At.PSKα on corn, plant height in non-stress and stress (Example 27); format: in vivo
soybean [10] = experiment: Foliar At.PSKα on soybean, field yield (Example 20); format: in vivo
Procedure: as §1

soybean [11] = experiment: Foliar At.PSKα on soybean in non-stress and stress environments (Example 21); format: in vivo; settings: V1-V4 foliar
Procedure: Soybean plants were grown as described in Example 6. The At.PSKα polypeptide (SEQ ID NO: 598) was applied as a foliar spray to the plants at the V1-V4 stage. Soybean plants treated with foliar applications of At.PSKα and control plants treated with water and surfactant alone were then grown in conditions described in Examples 7-9 that produced a non-stress and stress (heat and water deficit) environments. Table 37 describes the percentage change or increase in height reported for soybean plants treated with At.PSKα as a foliar spray at the V1-V4 growth stage.

corn [12] = experiment: Foliar Flg22 and retro inverso Flg22 on corn, plant height (Example 7); format: in vivo; settings: 1 μM
Procedure: Control plants were treated with water alone.

[13] = tested on: reactive oxygen species (ROS) production in corn tissue; experiment: ROS activity assay, corn tissue (Examples 15-18); format: cell-based
corn [14] = experiment: Corn seed treatment with Bt.4Q7Flg22 and Pa.Flg22, yield (Example 36); format: in vivo; settings: 1 uM in slurry, 3 hybrids, 8 locations
Procedure: Seed treatment compositions of the Flg22 polypeptides were applied as described in Table 53 as Fl. oz per unit of corn or soy seeds in a total slurry volume containing the base seed treatment Bt.4Q7Flg22 from Bacillus thuringinesis (Composition 10) and Pa. Flg22 from Paenibacillus alvei (Composition 11). Final concentration of polypeptide in the slurry for Compositions 10 and 11 was 1 uM.
The average change in Bu/Ac was as compared to the corn plants grown from seed that received the only the base seed treatment (ST) and is reported in Table 54.

[15] = tested on: reactive oxygen species (ROS) production in soybean leaf tissue; experiment: ROS activity assay, soybean leaf discs (Examples 15-18); format: cell-based
soybean [16] = experiment: Soybean seed treatment with Flg22 polypeptides and cellobiose, yield (Example 38); format: in vivo; settings: polypeptide at 1.0 μM (combination 0.33 μM each; cellobiose 1 mM)
Procedure: Seed treatments were applied to 1 soybean hybrid (variety) planted in 1 locations in the US Midwest (Columbia, MO). […] The application use rates per each seed treatment were held constant at 0.14 Fl. oz/Ac or 4.14 mL/unit. Final concentration of the Flg22 polypeptides in the slurry for were standardized to 1 uM per seed. The same final concentration of cellobiose that was applied in combination treatments with the Flg22 polypeptides was at 1.0 mM per seed. Four replicate plots per each seed treatment were randomized over the location. The average yield in Bu/Ac and the average change in Bu/Ac as compared to the control plants that received only the base seed treatment are reported in Table 58.

[17] = tested on: Pseudomonas syringae pv. actinidiae (PSA-V); experiment: Potted kiwi disease trial, PSA-V leaf spot (Example 54); settings: 6, 16 and 23 DAI
[18] = tested on: reactive oxygen species (ROS) production in Kiwi 'Hayward' leaf petioles; experiment: ROS assay, kiwi leaf petioles (Example 54); format: cell-based, Actinidiae deliciosa; settings: 100 nM peptide, 40 minutes time course, SEM in the row below
Procedure: To test the sensitivity of kiwi leaves to 22-amino acid fragments of flagellin, 1 mm slices were cut through Actinidiae deliciosa Kiwi ‘Hayward’ leaf petioles and floated in 150 μL of water in a 96-well plate, with one slice per well. […] In two independent experiments, a total of 6 kiwi leaf petiole samples were treated with each Flg22 polypeptide in Table 94. The average total RLU and standard error of the means (SEM) was calculated for each treatment. A two-tailed T-test was used to determine significance at the 90% confidence level (P<0.1) between treatments. Relative ROS production was determined for each polypeptide in comparison to total RLUs for the 100 nM Bt.4Q7Flg22 control.

[19] = tested on: Candidatus liberibacter asiaticus; settings: in vivo

## AIAQGAADDKASNIRLGSSLRE (not fully specified (some residues); also: retro-inverso D-amino acids, exact chain order not given here; listed as Escherichia coli) [Ec.RI Flg22, retro-inverso Flg22 from Escherichia coli]
Corn [1]
  average yield increase over non-treated plants: 1.9 Bu/Ac
Corn [2]
  win rate: 50%
Corn [2]; foliar spray 0.33 Fl. oz/Ac, V5-V8 corn
  average yield increase: 1.9 Bu/Ac
Soybean [3]; 100 nM in the tank
  yield increase: 0.6 Bu/Ac
Soybean [3]; 10-11 sites
  win rate: 80%
Soybean [4]
  win rate: 73%
  yield advantage: 1.8 Bu/Ac
Corn [5]; heat/water stressed conditions
  plant height as percentage of control: 103%
Corn [5]; non-stressed conditions
  plant height as percentage of control: 103%
Soybean [6]
  increase in plant height normalized to control: 16%
Corn [7]
  yield advantage: no benefit

## At.PSKα: Phytosulfokine alpha, sulfonated polypeptide derived from Arabidopsis thaliana (Y(sulfo)IY(sulfo)TQ; listed as Arabidopsis thaliana)
Corn [8]; 1 μM foliar spray with surfactant at V5-V8, vs water control
  yield increases Bu/Ac Foliar Corn: 3.0 Bu/Ac
Corn [8]; foliar 1 μM, V5-V8 corn
  increase in overall yield: 3 Bu/Ac
Corn [9]; corn, 3 weeks after emergence, measured before the foliar spray (baseline), HpaG-like 1 μM, At.PSKα 100 nM
  Height (cm) and (STDEV) 3 weeks: 49.36 cm
Corn [9]; corn, 5 weeks, heat and water deficit stress, control surfactant alone
  Plant Height Normalized as a percentage of control height Stress: 107.8%
Corn [9]; corn, 5 weeks, control surfactant alone
  Plant Height Normalized as a percentage of control height Non-stress: 98.2%
Corn [9]; corn, heat and water deficit stress, HpaG-like 1 μM, At.PSKα 100 nM foliar
  Height (cm) after stress 5 weeks: 54.88 cm
Corn [9]; corn, standard growth environment, HpaG-like 1 μM, At.PSKα 100 nM foliar
  Height (cm) after non-stress 5 weeks: 58.62 cm
Corn [9]; heat and water deficit stress, HpaG-like 1 μM, PSKα
  growth phenotype (plant height) vs control: improved growth phenotype
Soybean [10]; 1 μM foliar spray with surfactant at V1-V4, vs water control
  yield increases Bu/Ac Foliar Soybean: 0.8 Bu/Ac
Soybean [10]; foliar 1 μM, V1-V4 soybean
  yield increase: 0.8 Bu/Ac
Soybean [11]; non-stress environment
  increase in height vs non-treated control: 3.5%
Soybean [11]; stress (heat and water deficit) environments
  increase in height vs non-treated control: 4.3%

## Bt4Q7Flg 22 (DRLSSGKRINSASDDAAGLAIA; listed as Bacillus thuringiensis)
Corn [12]; 3 to 5 weeks
  Δ Height (cm): 5.40 cm
Corn [12]; vs water-treated control
  Δ Height Normalized as a percentage of control height: +3.7%

## GKLSSGLRINGASDDAAGLAIS (listed as Paenibacillus sp.) [Pa.Flg22]
[13]
  Avg. Activity (%) Corn (5828 YX) 5 nM polypeptide: 135.3% and 103.61%
Corn [14]
  yield increase vs base seed treatment: 3.57 Bu/Ac
[15]
  Avg. Activity (%) Soybean (297 R4) 100 nM polypeptide: 112.5% and 132.95%
Soybean [16]
  Average Change in Bu/Ac compared to Untreated Control: +0.28 Bu/Ac

## TRLSSGLKINSAKDDAAGLQIA (listed as Pseudomonas syringae) [Flg22-PSA, Flg22 derived from Pseudomonas syringae pv. actinidiae]
[17]
  PSA-V leaf spot symptoms in comparison to untreated control: significantly reduced PSA-V leaf spot symptoms
[18]
  Average Total Relative Light Units (RLUs): 124,550 RLUs

## thionin "tagged": thionin polypeptide that comprised a phloem localization sequence (SEQ ID NO: 650) (RTCESQSHRFKGPCSRDSNCATVCLTEGFSGGDCRGFRRRCRCTRPCVFDEK)
[19]
  Ct values compared to control trees: higher average Ct values
